Measurements published in patent US20260327211A1, “MODULATORS OF A POTASSIUM CHANNEL AND OF TRPV1 CHANNEL AND USES THEREOF” (Bsense Bio Therapeutics Ltd., priority 2023, published 2026).
Where two headings read alike, the source gives them in different places.

Legend:
[1] = Metabolite identification (Met-ID), human hepatocytes; assay type: in vitro ADME; settings: human hepatocytes
Description: Cell culture and incubation: Cryopreserved hepatocyte cells, from human and rat sources, were purchased from commercial sources or in-house production, and were cultured in Williams' Medium E supplemented with glutamine and HEPES, in a humidified 5% CO2 incubator at 37° C., to a cell density of […]. Then, solutions of test compounds at a concentration of 10 μM, or 7-Ethoxycoumarin, as a positive control, at a concentration of 30 μM, in Eagle's Minimum Essential Medium, Catalog No. 30-2003 (ATCC) supplemented with 20% fetal bovine serum, were introduced and the mixture was incubated for 120 minutes, or other specified time points.
The samples were analyzed for metabolites using an LC-MS method developed on […] and PDA systems. Comparative analyses of mass spectra and ion fragmentation between the parent compound and its metabolites were carried out, and metabolic profiling was determined using the mass spectrometric and/or PDA (UV) response. Hypothetical structures of metabolites and their metabolic pathways were proposed.

CYP3A4 = assay: CYP inhibition / time-dependent inhibition, CYP3A4_Midazolam; assay type: in vitro ADME, human; settings: role: inhibitor; substrate midazolam 2.0 μM; CYP TDI ratio
Description: The time-dependent inactivation potency of the test compound to CYP enzymatic activities was assessed by the pre-incubation of the human liver microsomes with the test compound in the presence and absence of NADPH, followed by the incubation with the discrete marker substrates, as follows.
Pre-incubation with human liver microsomes (HLMs): The TDI inactivation potency on CYP enzymatic activities was evaluated through pre-incubation with HLMs (Corning). A liver microsome mixture at a concentration of 0.1 mg/mL, and the test compound at 8 different concentrations (0, 0.05, 0.165, 0.5, 1.65, 5.0, 16.5, or 50.0 μM) was warmed at 37° C. for 10 minutes. Concurrently, a set of known time-dependent inactivators was also prepared in duplicate for comparison. Following this, NADPH (1.0 mM) was added to one group (Group 1), and an equal volume of potassium phosphate buffer to the second group (Group 2), marking the beginning of a 30-minute pre-incubation at 37° C.
Incubation: After pre-incubation, the marker substrate, or marker substrate plus NADPH was added to the mixture, thereby initiating the incubation. The duration of the incubation was dependent on the type of CYP isoform being evaluated. For example, with the CYP3A isoform, the mixture was incubated over 3 minutes utilizing midazolam as the marker substrate (2.0 μM), verapamil as the standard inactivator (3.5 μM).
Termination of Reaction: Following the incubation, ice-cooled acetonitrile containing the internal standard (IS) was added to halt the reactions. Metabolites generated from the marker substrates were then measured via LC-MS/MS, assessed based on peak area ratios of the analyte to IS.

[2] = Human liver microsome metabolic stability; assay type: in vitro ADME; settings: for HLM T1/2 / half-life at 1 µM: human liver microsomes; for HLM T1/2: 1 µM; for half-life at 1 µM: human, liver microsomes, read-out: HLM T1/2
Text: Liver microsomes which are subcellular particles derived from endoplasmic reticulum of hepatic cells were used for evaluating the tested compounds. These particles are rich in drug metabolizing enzymes, including the cytochrome p-450 family. Liver microsomes are a recommended test system for various in vitro drug metabolism and pharmacokinetics (DMPK) studies. CLint values lower than […] are considered suitable for drug development.
Liver Microsome Metabolic Stability Assay (NADPH): The liver microsome stability assay was evaluated through pre-incubation with HLMs. A liver microsome mixture (pooled from multiple donors) at a concentration of 0.5 mg/mL, and the test compound at a concentration of 1 μM, were warmed in the presence of a NADPH regenerating system (about 1.0 mM) at 37° C. Positive controls, including testosterone (a CYP3A4 substrate), propafenone (a CYP2D6 substrate), and diclofenac (a CYP2C9) substrate, were concurrently incubated with the HLMs, in the presence of the NADPH regenerating system (1.0 mM). Samples were extracted during incubation at multiple intervals: 0, 5, 15, 30, 45 and 60 minutes. To terminate the reactions, the samples were promptly mixed with cooled acetonitrile that included an internal standard (IS). An additional compound was incubated with the HLMs in the absence of the NADPH regeneration system, from which a sample was taken at the 60-minute interval.
The clearance of the test compound in the samples was subsequently analyzed by LC-MS/MS based on the peak area ratios of the analyte to the IS.
The following equation was used to calculate the microsome clearance: […]
Liver weight: 40 grams/kg, 30 grams/kg, 32 grams/kg, 20 grams/kg and 88 grams/kg, for rat, monkey, dog, human and mouse, respectively.

[3] = Log D, 1-octanol/buffer shake flask; assay type: physicochemical; settings: pH 7.4
Description: The Log D assay was a miniaturized 1-octanol/buffer shake flask method followed by LC/MS/MS analysis, as follows.
The test compounds or control compounds Nadolol, Chlorpromazine Hydrochloride and Propranolol Hydrochloride were dissolved in 100% DMSO to obtain 10 mM solutions, which were transferred to 96-well polypropylene cluster tubes; 2 μL/well. 1-octanol saturated with 0.1 M phosphate buffer (149 μL/well) and 0.1 M phosphate buffer saturated with 1-octanol (149 μL/well) were added to the tubes, respectively, and each tube was vigorously mixed for 2 minutes and then shaked at a speed of 800 rpm at room temperature for 1 hour, followed by centrifugation at 4000 rpm for 5 minutes at room temperature. Thereafter, for the test compounds and the Chlorpromazine Hydrochloride and Propranolol Hydrochloride, the sample of the buffer layer was diluted by a factor of 50-fold and the sample of 1-octanol layer was diluted by a factor of 2000-fold with internal standard (IS) solution. For Nadolol, the sample of the buffer layer was diluted by a factor of 1000-fold and the sample of 1-octanol layer was diluted by a factor of 400-fold with internal standard (IS) solution. The samples were analyzed using a triple quadrupole mass spectrometer. Peak areas were corrected by dilution factors and embedded internal standard, and the ratio of the corrected peak areas was used to calculate the Log D value. The Log D value for each compound will be calculated by the following equation: […]

Rat pharmacokinetics = assay type: in vivo; settings: rat, plasma
Description: The pharmacokinetic (PK) properties of test compound following single intravenous (IV) bolus and oral gavage (PO) administration in male Sprague-Dawley (SD) rats were determined in this study.
Test compound administration: Six male Sprague Dawley (SD) rats were divided into two designated groups, Group 1 and Group 2, each composed of three rat subjects. Group 1 animals were subjected to a single intravenous bolus administration of the test compound at a dosage of 1 mg/kg. Group 2 animals were administered with the test compound orally in a single dose, at a concentration of 10 mg/kg. Throughout the study, the animals had unhindered access to food. The test compound was administered at a concentration of 0.5 mg/mL and dose volume of 2 mL/kg for Group 1, and at a concentration of 1 mg/mL and dose volume of 10 mL/kg, for Group 2.
Sample extraction and analysis: Plasma samples were systematically collected at varying time points of 0.083 (only for Group 1), 0.25, 0.5, 1, 2, 4-, 6-, 8-, and 24-hours post-dose. LC-MS/MS was used to determine the test compound's concentration within the collected plasma samples. Data reflecting plasma concentration in correlation to time were graphically represented and subjected to a non-compartmental analysis using the Phoenix WinNonlin 6.3 software program. The resulting pharmacokinetic parameters, including Clearance (Cl), Volume of distribution at steady state (Vdss) and initial concentration (C0) for intravenous administration; peak concentration (Cmax), time of peak concentration (Tmax), and bioavailability (% F) for extravascular administration; and half-life (T1/2), Area Under Curve from time zero to time t (AUC(0-t)), Area Under Curve from time zero to infinity (AUC(0-inf)), Mean Residence Time from time zero to time t (MRT(0-t)), Mean Residence Time from time zero to infinity (MRT(0-inf)) for all routes, were systematically calculated.

hTRPV1 = target: T1, hTRPV1 (Homo sapiens, UniProt Q8NER1); assay: hTRPV1 dual activity electrophysiology, CHO cells co-expressing hKv7.2/3 and hTRPV1; assay type: cell-based; settings: Kv7.2/3 co-expressed and activated, capsaicin; read-out: Dual hTRPV1 / Dual Expressing CHO, CAP IC50
T1 construct: CDS of NM_080704.4, inserted into the multiple cloning site of pcDNA3.1(+); host or cells: CHO/hKv7.2/3
T1 sequence (Q8NER1 whole entry): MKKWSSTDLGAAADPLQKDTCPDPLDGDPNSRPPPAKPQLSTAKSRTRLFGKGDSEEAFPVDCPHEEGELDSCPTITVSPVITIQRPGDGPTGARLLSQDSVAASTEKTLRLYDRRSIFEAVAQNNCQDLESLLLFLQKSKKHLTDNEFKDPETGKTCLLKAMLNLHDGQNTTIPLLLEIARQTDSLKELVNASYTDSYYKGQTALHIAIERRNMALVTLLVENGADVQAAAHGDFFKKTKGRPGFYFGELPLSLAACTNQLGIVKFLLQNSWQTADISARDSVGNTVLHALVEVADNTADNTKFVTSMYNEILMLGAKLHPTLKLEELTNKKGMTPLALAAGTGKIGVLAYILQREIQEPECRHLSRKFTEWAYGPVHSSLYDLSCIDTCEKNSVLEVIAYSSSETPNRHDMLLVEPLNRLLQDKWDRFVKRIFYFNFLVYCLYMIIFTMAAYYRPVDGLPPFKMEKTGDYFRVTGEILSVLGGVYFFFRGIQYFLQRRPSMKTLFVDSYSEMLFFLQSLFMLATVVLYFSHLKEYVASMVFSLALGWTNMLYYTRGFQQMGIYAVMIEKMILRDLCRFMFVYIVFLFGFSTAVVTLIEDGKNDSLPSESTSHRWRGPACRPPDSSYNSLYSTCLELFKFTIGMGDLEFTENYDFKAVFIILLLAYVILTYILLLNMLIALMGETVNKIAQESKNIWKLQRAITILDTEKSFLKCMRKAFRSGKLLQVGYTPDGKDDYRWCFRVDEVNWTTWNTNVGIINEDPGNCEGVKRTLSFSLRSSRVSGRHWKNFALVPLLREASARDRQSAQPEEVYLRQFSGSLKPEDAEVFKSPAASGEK
Description: Cell culture and DNA transfection: CHO/hKv7.2/3 cells were transfected with hTRPV1 DNA constructs (CDS of NM_080704.4, inserted into the multiple cloning site of pcDNA3.1(+) between the Hind III and BamH I restriction site, Genscript). For CHO transfection, 1×10^6 cells were suspended in a reaction mix (Amaxa™ 4D-Nucleofector™-LONZA) containing 5 μg of hTRPV1 DNA and 0.5 μg of GFP DNA (for cells selection) in a cuvette.
The cells were transformed (Amaxa, DT-133 program for CHO transfection with p-3 Kit) and recovered for 10 minutes at RT in the hood. Then cells were re-suspended in a 10 mL antibiotic (Ab)-free medium suspension and were plated on Gelatin or PLL-coated cover glass in different cell densities. On the next morning, the medium was changed to full medium containing the CHO/hKv7.2/3 cell line selection antibiotics.
Extracellular (Bath) solution: The solution was composed of (in mM): NaCl, 140; KCl, 4; CaCl2, 1.8; MgCl2, 1.2; Glucose, 11; HEPES, 5.5. pH was adjusted to 7.3 with NaOH. Osmolarity was adjusted to 310 mOsm with Sucrose.
Intracellular (Pipette) solution: Pipettes were pulled from borosilicate glass (Warner Instrument Corp, USA) with a resistance of 3-7 MΩ and were filled with internal solution composed of (in mM): KCl, 130; MgCl2, 1; K ATP, 5; EGTA, 5; HEPES, 10. pH was adjusted to 7.3 with KOH. Osmolarity was adjusted to 290 mOsm with Sucrose.
A programmable valve-linked pressurized perfusion system was used for local application of compounds nearby the cell recorded in a consistent flow rate of 2-3 mL/minute. Series resistance was corrected and data were sampled at 5 kHz and low pass filtered at 2.4 kHz using MultiClamp 700B amplifier with pCLAMP11 software (Molecular Devices, USA).
At least 48 hours following cell transfection and plating, cells were recorded to assess the TRPV1 dual activity. Membrane potential was held at −90 mV. To measure the inhibitory effects of the tested compounds on hTRPV1 dual activity the following protocol was performed:
Cells were perfused with vehicle-only containing bath solution. After 30 seconds, a single −40 mV 1.5 second step was applied for Kv7.2/3 activation and 30 seconds later capsaicin (1 μM) was applied for 6 seconds to activate the TRPV1.
Cells perfusion was changed to a compound-containing bath solution, and after 2 minutes and 30 seconds of compound application, a single −40 mV 1.5 second step was applied for Kv7.2/3 activation and 30 seconds later capsaicin (1 μM) was applied for 6 seconds to activate the TRPV1.
Cells perfusion was thereafter changed back to vehicle only-containing bath solution. After 30 seconds, a single −40 mV 1.5 step was applied for Kv7.2/3 activation and 30 seconds later capsaicin (1 μM) was applied for 6 seconds to activate the TRPV1 followed by a capsaicin wash out.
The drug current response, when capsaicin was injected following 3 minutes of pre-incubation with the test compound, was divided by the averaged control currents, induced without compound, before compound incubation and following its washout, to evaluate the drug/control response.

[4] = 1-octanol/phosphate buffer, read-out: LogD

Row | CYP-TDI (midazolam), (−)NADPH/(+)NADPH Ratio CYP3A4 (CYP3A4) | half-life at 1 µM [2] | logD [3, 4] | clearance (Rat pharmacokinetics; iv, 1 mg/kg, read-out: PK: Cl) | bioavailability (Rat pharmacokinetics; po, 10 mg/kg, read-out: PK: Oral BA) | IC50 (hTRPV1) | Structure (SMILES) | Human Hepatocytes MetID (glutathione conjugation) [1] | HLM T1/2 [2] | logD [3] | HLM and/or Rat PK clearance rates compared to compound 661 [2]
1 | >1.9 | 34.8 min | 3.88 | – | – | – | O=C(Cc1cncc(-n2cc(C(F)(F)F)c3cc(Cl)cc(Cl)c32)c1)N[C@@H]1COC[C@H]1O [Compound 770] | – | – | – | –
2 | 2.04 | 26.7 min | 4.29 | – | – | – | O=C(Cc1cncc(-n2cc(C3CC3)c3cc(Cl)cc(Cl)c32)c1)N[C@@H]1COC[C@H]1O [Compound 790] | – | – | – | –
3 | >2.67 | 15.4 min | > 4.1 | – | – | – | CC(C)(C)c1cn(-c2cncc(CC(=O)N[C@@H]3COC[C@H]3O)c2)c2c(Cl)cc(Cl)cc12 [Compound 800] | – | – | – | –
4 | – | – | – | – | – | 1080 nM | O=C(Cc1cc(-n2cc(Cl)c3cc(Cl)cc(Cl)c32)ncn1)NCCO [Compound 851] | did not indicate the presence of glutathione conjugation | 60.6 min | 3.38 | improved HLM and/or Rat PK clearance rates compared to compound 661

Continued, compound first:

Row | Structure (SMILES) | CYP-TDI (midazolam), (−)NADPH/(+)NADPH Ratio CYP3A4 (CYP3A4) | half-life at 1 µM [2] | logD [3, 4] | clearance (Rat pharmacokinetics; iv, 1 mg/kg, read-out: PK: Cl) | bioavailability (Rat pharmacokinetics; po, 10 mg/kg, read-out: PK: Oral BA) | IC50 (hTRPV1) | Human Hepatocytes MetID (glutathione conjugation) [1] | HLM T1/2 [2] | logD [3] | HLM and/or Rat PK clearance rates compared to compound 661 [2]
5 | CC1CN(c2cncc(CC(=O)NC3COCC3O)c2)c2c(Cl)cc(Cl)cc21 (mixture of isomers) [Compound 710] | 1.22 | – | – | – | – | – | did not indicate the presence of glutathione conjugation | 10.1 min | 2.88 | –
6 | CC1(C)CN(c2cncc(CC(=O)NC3COCC3O)c2)c2c(Cl)cc(Cl)cc21 (stereo not shown) [Compound 720] | >1.6 | – | – | – | – | – | – | 6.1 min | 3.24 | –
7 | O=C(Cc1cncc(N2CC3(CC3)c3cc(Cl)cc(Cl)c32)c1)NC1COCC1O (stereo not shown) [Compound 730] | >1.57 | – | – | – | – | – | – | 9.9 min | 3.22 | –
8 | O=C(Cc1nccc(-n2cc(Cl)c3cc(Cl)cc(Cl)c32)n1)NCCO [Compound 767] | 1.20 | 61.9 min | 3.3 | 42.5 mL/min/kg | 79.7% | – | did not indicate the presence of glutathione conjugation and None | – | – | improved HLM and/or Rat PK clearance rates compared to compound 661
